These results are taken from ChEMBL document CHEMBL5321294, “Evolution of Slow-Binding Inhibitors Targeting Histone Deacetylase Isoforms” (J Med Chem, 2023).

The structures appear in SMILES notation.

Series [1] addresses T1, Histone deacetylase 1 (Homo sapiens, UniProt Q13547). The experiment in a line: Binding affinity to human HDAC1 using AcLGK (Ac) -AMC as substrate assessed as residence time.
Series [2] deals with T2, Histone deacetylase 3 (Homo sapiens, UniProt O15379). The experiment in a line: Binding affinity to HDAC3 (unknown origin) assessed as inhibition constant.
The target in series [3] is T1, Histone deacetylase 1. The experiment in a line: Binding affinity to HDAC1 (unknown origin) assessed as inhibition constant.
The target in series [4] is T2, Histone deacetylase 3. The experiment in a line: Inhibition of HDAC3 (unknown origin) measured after 1 hrs by fluorescence based assay.
Series [5] addresses T1, Histone deacetylase 1. Description: Inhibition of HDAC1 (unknown origin) measured after 1 hrs by fluorescence based assay.
The target of series [6] is T2, Histone deacetylase 3. The experiment in a line: Inhibition of HDAC3 (unknown origin) measured after 24 hrs by fluorescence based assay.
Series [7] has as its target T3, Histone deacetylase 2 (Homo sapiens, UniProt Q92769). Description: Inhibition of HDAC2 (unknown origin) measured after 1 hrs by fluorescence based assay.
Series [8] can be described thus: in vivo. Conditions: C57BL/6, mouse, brain, ip, 25 mg/kg.
Description: Half life in C57BL/6 mouse brain at 25 mg/kg, ip
Series [9] deals with T2, Histone deacetylase 3.
In series [10] the target is T1, Histone deacetylase 1.
The target in series [11] is T2, Histone deacetylase 3. The experiment in a line: Binding affinity to HDAC3 (unknown origin) assessed as binding constant(k-2).
Series [12] addresses T2, Histone deacetylase 3. Description: Binding affinity to HDAC3 (unknown origin) assessed as binding constant(k2).
In series [13] the target is T2, Histone deacetylase 3. The experiment in a line: Binding affinity to HDAC3 (unknown origin) assessed as residence time.
For series [14], the target named is T1, Histone deacetylase 1. This is another data set of the same source.
Description: Binding affinity to HDAC1 (unknown origin) using Ac-LGKac-AMC as substrate assessed as half life
Series [15] addresses T1, Histone deacetylase 1. The source holds these as a separate data set.
Series [16] deals with T1, Histone deacetylase 1. The source holds these as a separate data set.
Series [17] deals with T2, Histone deacetylase 3. This is another data set of the same source.
Description: Binding affinity to HDAC3 (unknown origin) using Ac-LGKac-AMC as substrate assessed as half life
In series [18] the target is T3, Histone deacetylase 2.
Series [19] in a line: Half life in C57BL/6 mouse brain at 45 mg/kg, ip. The format is ADME, organism-based.
The target in series [20] is T1, Histone deacetylase 1. Conditions: HEK293T.
Series [21] deals with T3, Histone deacetylase 2. This is another data set of the same source.
Description: Binding affinity to HDAC2 (unknown origin) using Ac-LGKac-AMC as substrate assessed as half life

T1 sequence (Q13547 whole entry): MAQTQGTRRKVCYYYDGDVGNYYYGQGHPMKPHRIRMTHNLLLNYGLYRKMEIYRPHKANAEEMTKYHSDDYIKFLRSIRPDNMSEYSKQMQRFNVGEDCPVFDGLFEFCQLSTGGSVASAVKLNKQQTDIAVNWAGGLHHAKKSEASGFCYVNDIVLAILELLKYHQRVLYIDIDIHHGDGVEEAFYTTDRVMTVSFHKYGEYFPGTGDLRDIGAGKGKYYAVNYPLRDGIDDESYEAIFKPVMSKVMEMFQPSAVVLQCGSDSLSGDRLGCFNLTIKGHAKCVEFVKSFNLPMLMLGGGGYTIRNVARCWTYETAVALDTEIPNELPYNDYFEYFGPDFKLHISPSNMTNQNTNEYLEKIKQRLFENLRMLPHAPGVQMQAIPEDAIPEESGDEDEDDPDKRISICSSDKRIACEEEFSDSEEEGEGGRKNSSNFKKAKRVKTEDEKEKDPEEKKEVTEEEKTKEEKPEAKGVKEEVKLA
T3 sequence (Q92769 whole entry): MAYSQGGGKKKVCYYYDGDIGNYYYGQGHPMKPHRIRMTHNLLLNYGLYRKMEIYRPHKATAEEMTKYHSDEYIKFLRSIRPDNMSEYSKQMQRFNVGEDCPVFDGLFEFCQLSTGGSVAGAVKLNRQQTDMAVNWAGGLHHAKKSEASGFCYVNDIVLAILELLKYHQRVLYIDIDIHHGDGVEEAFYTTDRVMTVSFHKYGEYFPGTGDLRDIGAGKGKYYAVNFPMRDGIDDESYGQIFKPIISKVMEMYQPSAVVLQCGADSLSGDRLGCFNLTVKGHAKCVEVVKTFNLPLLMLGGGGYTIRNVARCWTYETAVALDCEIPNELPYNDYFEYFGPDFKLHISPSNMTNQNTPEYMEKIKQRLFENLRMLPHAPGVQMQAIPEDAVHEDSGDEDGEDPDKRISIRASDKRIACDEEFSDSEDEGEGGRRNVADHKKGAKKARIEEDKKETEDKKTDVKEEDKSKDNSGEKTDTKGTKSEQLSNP
T2 sequence (O15379 whole entry): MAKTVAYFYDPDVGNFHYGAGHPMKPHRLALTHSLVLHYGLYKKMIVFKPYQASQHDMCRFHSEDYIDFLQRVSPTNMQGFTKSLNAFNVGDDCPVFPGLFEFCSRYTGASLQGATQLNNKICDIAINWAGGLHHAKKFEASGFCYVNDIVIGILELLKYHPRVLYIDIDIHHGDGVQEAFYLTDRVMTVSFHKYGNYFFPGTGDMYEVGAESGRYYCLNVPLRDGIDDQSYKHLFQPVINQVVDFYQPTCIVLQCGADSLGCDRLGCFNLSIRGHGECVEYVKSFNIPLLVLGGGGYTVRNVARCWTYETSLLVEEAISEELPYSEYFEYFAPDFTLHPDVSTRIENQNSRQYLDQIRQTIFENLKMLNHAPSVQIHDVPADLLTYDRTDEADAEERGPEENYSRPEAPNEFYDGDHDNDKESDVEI

In the case of `Nc1ccc(-c2ccco2)cc1NC(=O)c1ccc(-c2cn(CS(=O)(=O)c3ccccc3)nn2)cc1`, the TIME in [1] stood at 2.42 h.

A word on the Ki: it is the equilibrium dissociation constant of an inhibitor or competing ligand from its target. As for `CCC(=O)CCCCC[C@@H]1NC(=O)[C@H]2CCCCN2C(=O)[C@H]([C@@H](C)CC)NC(=O)[C@H](Cc2c[nH]c3ccccc23)NC1=O`, the values for the Ki in series [2] and in [3] were 600 nM and 400 nM, respectively.

In general, IC50 refers to the concentration that gives 50% inhibition. With `O=C(/C=C(\CO)c1ccccc1)c1ccccc1`, the IC50 in [4] is about 50000 nM; in series [5], 3680 nM; in [6], about 50000 nM; in [7], 9190 nM.

For orientation: half-life means the time needed for the level to fall by half in the phase considered. For `O=C(CCCCCCC(=O)Nc1ccccc1)NO` [VORINOSTAT], in [8], the half-life is 0.44 h. The T1/2 in series [9] was under 0.0667 h; in series [10], under 4 min.

Take `C[C@@H]1NC(=O)[C@H]2CCCN2C(=O)[C@H](CCCCCC(=O)[C@@H]2CO2)NC(=O)[C@@H](C)NC1=O`: the K came out at 0.012 min⁻¹ in series [11] and 0.12 min⁻¹ in series [12]. In addition, the TIME in [13] is 1.39 h.

Take `C/C=C1\NC(=O)[C@H]2CSSCC/C=C/[C@H](CC(=O)N[C@H](C(C)C)C(=O)N2)OC(=O)[C@H](C(C)C)NC1=O` [ROMIDEPSIN]: the T1/2 in series [14] is over 0.433 h; in series [17] it was over 1670 h. Further, the inhibition constant Ki is about 0.02 nM in series [15] and 0.88 nM in series [16].

In the case of `CC(=O)Nc1ccc(C(=O)Nc2cc(-c3cccs3)ccc2N)cc1`, the values for the T1/2 in [9] and in series [18] were 20 h and over 80 h, respectively. In [19], this compound showed a half-life of 6.44 h.

Consider `Cc1ccc(NC(=O)CCCCCC(=O)Nc2ccccc2N)cc1`, for which the T1/2 in series [20] turned out to be 1.5 h.

In the case of `Cc1[nH]c2ccccc2c1CCNCc1ccc(/C=C/C(=O)NO)cc1`, the T1/2 is over 1670 h in [21] and over 1.05 h in series [17].
